Values joined by “and” are separate entries in the source; they are usually repeats but may differ in a detail not shown here. Identical values can stand only once. Inconclusive results and toxic doses are left out.

For this assay, the system named is L1210 leukemia ip in BDF1 mice, survival T/C. Description: NCI In Vivo Anticancer Drug Screen. Data for tumor model L1210 Leukemia (intraperitoneal) in B6D2F1 (BDF1) mice. To be noted: endpoint: mean survival time, higher = longer survival. The essentials:
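Transplanted-tumor mice were given test agent; controls received vehicle only. Survival readings from the two groups were divided (treated over control).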

[1] abbreviates: dose: 50.0 mg/kg/injection, schedule: Q01DX001 (ip), vehicle: carboxymethylcellulose (CMC).
Setting [2] is: dose: 100.0 mg/kg/injection, schedule: Q01DX001 (ip), vehicle: carboxymethylcellulose (CMC).
Where [3] appears, read: dose: 200.0 mg/kg/injection, schedule: Q01DX001 (ip), vehicle: carboxymethylcellulose (CMC).
Where [4] appears, read: dose: 400.0 mg/kg/injection, schedule: Q01DX001 (ip), vehicle: carboxymethylcellulose (CMC).

In the case of `CNC(=N)c1ccc(NC(=N)c2ccc(NC(=N)c3ccc(NC(=N)c4ccc(C(=N)NC)cc4)cc3)cc2)cc1`, the T/C is 102 % of control (dose: 4.4 mg/kg/injection, schedule: Q01DX015 (sc), vehicle: water); 116 % of control (dose: 5.5 mg/kg/injection, schedule: Q01DX Z (ip), vehicle: water); 107 % of control (dose: 6.7 mg/kg/injection, schedule: Q01DX015 (sc), vehicle: water); 104 % of control (dose: 7.5 mg/kg/injection, schedule: Q01DX001 (ip), vehicle: water); 112 % of control (dose: 10.0 mg/kg/injection, schedule: Q01DX015 (sc), vehicle: water); 106 % of control (dose: 15.0 mg/kg/injection, schedule: Q01DX001 (ip), vehicle: water). Besides, the T/C (dose: 16.0 mg/kg/injection, schedule: Q01DX015 (ip), vehicle: water) is 216 % of control; the T/C (dose: 22.0 mg/kg/injection, schedule: Q01DX Z (ip), vehicle: water) is 191 % of control; the T/C (dose: 22.5 mg/kg/injection, schedule: Q01DX015 (sc), vehicle: water) is 184 % of control; the T/C (dose: 30.0 mg/kg/injection, schedule: Q01DX001 (ip), vehicle: water) is 106 % of control; the T/C (dose: 44.0 mg/kg/injection, schedule: Q01DX Z (ip), vehicle: water) was 100 % of control.

As for `Cc1ccc(S(=O)(=O)Nc2cc(C)cc(CCNC=O)c2C)cc1`, the T/C is, setting by setting: under setting [1], 114 % of control; under setting [2], 109 % of control; under setting [3], 95 % of control; under setting [4], 93 % of control.

With `CCCCCCC(=O)/C=C\c1ccc([N+](C)(C)C)cc1`, the T/C by setting is: (dose: 25.0 mg/kg/injection, schedule: Q01DX009 (sc), vehicle: steriod suspending solution) 93 % of control; (dose: 25.0 mg/kg/injection, schedule: Q04DX003 (sc), vehicle: steriod suspending solution) 94 % of control; (dose: 50.0 mg/kg/injection, schedule: Q01DX009 (sc), vehicle: steriod suspending solution) 97 % of control; (dose: 50.0 mg/kg/injection, schedule: Q04DX003 (sc), vehicle: steriod suspending solution) 92 % of control; (dose: 100.0 mg/kg/injection, schedule: Q01DX001 (sc), vehicle: steriod suspending solution) 86 % of control; (dose: 100.0 mg/kg/injection, schedule: Q04DX003 (sc), vehicle: steriod suspending solution) 106 % of control.

Turning to `Fc1c(F)c(F)c(/C=N/Nc2nnc(N/N=C/c3c(F)c(F)c(F)c(F)c3F)c3ccccc23)c(F)c1F`, the T/C was 93 % of control under setting [1], 95 % of control under setting [2], 98 % of control under setting [3] and 95 % of control under setting [4].

In the case of `CC(Oc1ccccc1)C(=O)NC(=S)Nc1cc(C(F)(F)F)ccc1Cl` (stereo unspecified), the T/C is 101 % of control and 103 % of control (dose: 50.0 mg/kg/injection, schedule: Q01DX009 (ip), vehicle: other); 105 % of control (dose: 100.0 mg/kg/injection, schedule: Q01DX001 (ip), vehicle: other); 100 % of control and 92 % of control (dose: 100.0 mg/kg/injection, schedule: Q01DX009 (ip), vehicle: other); 97 % of control and 110 % of control (dose: 100.0 mg/kg/injection, schedule: Q04DX002 (ip), vehicle: other); 100 % of control (dose: 200.0 mg/kg/injection, schedule: Q01DX001 (ip), vehicle: other); 95 % of control and 92 % of control (dose: 200.0 mg/kg/injection, schedule: Q01DX009 (ip), vehicle: other). Also, the T/C (dose: 200.0 mg/kg/injection, schedule: Q04DX002 (ip), vehicle: other) was 98 % of control and 106 % of control; the T/C (dose: 400.0 mg/kg/injection, schedule: Q01DX001 (ip), vehicle: other) was 94 % of control; the T/C (dose: 400.0 mg/kg/injection, schedule: Q01DX009 (ip), vehicle: other) was 87 % of control; the T/C (dose: 400.0 mg/kg/injection, schedule: Q04DX002 (ip), vehicle: other) is 97 % of control and 116 % of control.

Regarding `c1ccc2cc(Nc3ccc4ccccc4c3)ccc2c1`, the T/C (dose: 100.0 mg/kg/injection, schedule: Q01DX009 (ip), vehicle: saline with Tween-80) is 106 % of control; the T/C (dose: 200.0 mg/kg/injection, schedule: Q01DX009 (ip), vehicle: saline with Tween-80) was 108 % of control; the T/C (dose: 400.0 mg/kg/injection, schedule: Q01DX009 (ip), vehicle: saline with Tween-80) was 101 % of control.

As to `CCCCCCCCCCCCNC1=C(Cl)C(=O)c2ccccc2C1=O`, the T/C (dose: 1.0 mg/kg/injection, schedule: Q01DX Z (ip), vehicle: methylcellulose (MC)) was 94 % of control and the T/C (dose: 2.2 mg/kg/injection, schedule: Q01DX Z (ip), vehicle: methylcellulose (MC)) is 89 % of control.

As for `CC(=O)NNCc1ccccc1`, the T/C is 103 % of control (dose: 100.0 mg/kg/injection, schedule: Q01DX001 (ip), vehicle: Klucel (hydroxypropylcellulose) (HPC)); 103 % of control (dose: 200.0 mg/kg/injection, schedule: Q01DX001 (ip), vehicle: Klucel (hydroxypropylcellulose) (HPC)); 97 % of control (dose: 400.0 mg/kg/injection, schedule: Q01DX001 (ip), vehicle: Klucel (hydroxypropylcellulose) (HPC)).

As for `CC(=O)c1ccc(Cl)cc1`, the T/C was 91 % of control under setting [2], 91 % of control under setting [3] and 97 % of control under setting [4].

`COC(=O)CSc1nn2nnnc2c2ccccc12`: the T/C is 95 % of control (dose: 50.0 mg/kg/injection, schedule: Q04DX003 (ip), vehicle: saline); 103 % of control (dose: 100.0 mg/kg/injection, schedule: Q04DX003 (ip), vehicle: saline); 98 % of control (dose: 200.0 mg/kg/injection, schedule: Q04DX003 (ip), vehicle: saline).

`O=S(=O)(F)c1ccc(Cl)cc1CBr`: the T/C by setting is: (dose: 100.0 mg/kg/injection, schedule: Q04DX002 (ip), vehicle: saline with Tween-80) 107 % of control; (dose: 200.0 mg/kg/injection, schedule: Q04DX002 (ip), vehicle: saline with Tween-80) 101 % of control; (dose: 400.0 mg/kg/injection, schedule: Q04DX002 (ip), vehicle: saline with Tween-80) 92 % of control.

For the molecule `NC1=NC(=O)/C(=C/c2ccco2)S1`, the T/C is, setting by setting: (dose: 75.0 mg/kg/injection, schedule: Q01DX001 (ip), vehicle: saline) 98 % of control; (dose: 150.0 mg/kg/injection, schedule: Q01DX001 (ip), vehicle: saline) 93 % of control; (dose: 300.0 mg/kg/injection, schedule: Q01DX001 (ip), vehicle: saline) 90 % of control.

Consider `COC(=O)C1CNc2ccccc2C1=O` (stereo unspecified), for which the T/C was 97 % of control under setting [1], 92 % of control under setting [2], 97 % of control under setting [3] and 92 % of control under setting [4].

Take `CC(=O)Nc1c(Br)cc2c(c1Br)C(=O)c1cc(Br)ccc1-2`: the T/C runs as follows: under setting [2], 100 % of control; under setting [3], 100 % of control; under setting [4], 100 % of control.

For the molecule `O=C(O)C(Nc1ccc(Cc2ccc(NC(C(=O)O)c3ccccc3)cc2)cc1)c1ccccc1` (stereo unspecified), the T/C runs as follows: (dose: 100.0 mg/kg/injection, schedule: Q04DX002 (ip), vehicle: Klucel (hydroxypropylcellulose) (HPC)) 100 % of control; (dose: 200.0 mg/kg/injection, schedule: Q04DX002 (ip), vehicle: Klucel (hydroxypropylcellulose) (HPC)) 103 % of control; (dose: 400.0 mg/kg/injection, schedule: Q04DX002 (ip), vehicle: Klucel (hydroxypropylcellulose) (HPC)) 92 % of control.

For `NC(N)=N/N=C(\c1ccc(F)cc1)c1ccc(C(F)(F)F)cc1`, the T/C is, setting by setting: (dose: 9.5 mg/kg/injection, schedule: Q01DX001 (ip), vehicle: other) 92 % of control; (dose: 19.0 mg/kg/injection, schedule: Q01DX001 (ip), vehicle: other) 97 % of control; (dose: 38.0 mg/kg/injection, schedule: Q01DX001 (ip), vehicle: other) 98 % of control.

Consider `O=S(OCCCl)OCCCl`, for which the T/C (dose: 75.0 mg/kg/injection, schedule: Q04DX003 (ip), vehicle: Klucel (hydroxypropylcellulose) (HPC)) was 91 % of control; the T/C (dose: 150.0 mg/kg/injection, schedule: Q04DX003 (ip), vehicle: Klucel (hydroxypropylcellulose) (HPC)) is 102 % of control; the T/C (dose: 300.0 mg/kg/injection, schedule: Q04DX003 (ip), vehicle: Klucel (hydroxypropylcellulose) (HPC)) is 98 % of control.

As to `CCN(CCCl)CCCNc1c2ccc(Cl)cc2nc2ccc(OC)nc12`, the T/C (dose: 1.5 mg/kg/injection, schedule: Q01DX009 (ip), vehicle: saline) is 119 % of control and the T/C (dose: 6.0 mg/kg/injection, schedule: Q01DX009 (ip), vehicle: saline) is 91 % of control.

On to `c1ccc2c(c1)c(N1CCOCC1)nn1nnnc21`, for which the T/C runs as follows: (dose: 37.5 mg/kg/injection, schedule: Q04DX003 (ip), vehicle: saline) 101 % of control; (dose: 75.0 mg/kg/injection, schedule: Q04DX003 (ip), vehicle: saline) 98 % of control; (dose: 150.0 mg/kg/injection, schedule: Q04DX003 (ip), vehicle: saline) 98 % of control.

The values above are taken from PubChem BioAssay AID248 (DTP/NCI, 2004).
